Experimental data published in patent US20260234217A1, “USE OF BMP RECEPTOR ALK1 INHIBITORS IN OSTEOARTHRITIS THERAPIES” (The Regents of the University of California, priority 2023, published 2026).
“Also recorded” adds a separate entry of the source.

B1: GDF11: GDF11 protein from Bio-techne/R&D, catalog 1958-GD, truncated active protein of 109 amino acids (protein, UniProt O95390 299-407, looked up)
Growth/differentiation factor …: NLGLDCDEHSSESRCCRYPLTVDFEAFGWDWIIAPKRYKANYCSGQCEYMFMQKYPHTHLVQQANPRGSAGPCCTPTKMSPINMLYFNDKQQIIYGKIPGMVVDRCGCS
modifications: Growth/differentiation factor 11

Legend:
[1] = tested on: chondrocyte hypertrophy and MMP13 expression; settings: ex vivo and in vivo; cited from earlier work
AC cartilage = settings: post-traumatic OA model, Jaswal et al.; cited from earlier work
[2] = tested on: bone marrow stromal cell-derived chondrocytes; settings: cited from earlier work
[3] = tested on: articular cartilage of DMM mice; assay: DMM model of post-traumatic OA: Safranin-O/Fast Green staining and OARSI scoring of articular cartilage damage; type: in vivo, mouse; settings: mice with established osteoarthritis, 50 ng/dose injected into knee joint space
Method: (§1) FIG. 13. Growth differentiation factor 11 (GDF11, see, e.g., NCBI Reference Sequence: NP_005802.1) competes with BMP9/10 for binding to BMP type II receptors ACVRIIA or ACVRIIB, thereby preventing the association of BMP type I receptor ALK1 with ACVRIIA/B and decreasing BMP signaling. […] We tested this hypothesis by locally injecting GDF11 (50 ng/dose) into the knee joint space at mice with established post-traumatic OA. (A) Experimental Outline (B) Safranin-O/Fast Green (SOFG) Staining of sagittal sections of the knee joint, femur (top) and tibia (bottom) for proteoglycan (cartilage; red) and bone (green) at week 8 after DMM or Sham surgery. Mice were treated with either GDF11, or Phosphate Buffered Saline (PBS) after received surgery (n=5/group). 4-Week DMM mice were sacrificed 4 weeks after surgery and received no treatment (n=6). AC damage indicated by dotted line. (C-D) Osteoarthritis Research Society International (OARSI) scoring of AC damage in the (C) medial tibial plateau and (D) medial femoral condyle in representative sections of each treatment at week 4 or 8 after surgery. All data are shown as mean bar+/−standard deviation *p<0.05. Data analysis performed was one-way ANOVA. Scale 250 uM.
Mice (C57BL/6J) were purchased from The Jackson Laboratory. All mice were housed on a 12-hour light/dark cycle with unrestricted access to standard mouse food and water. The DMM model of injury induced OA was performed on mice at 12 weeks of age by opening the joint capsule and transecting the medial meniscotibial ligament in the right knee, destabilizing the medial meniscus(48). A sham operation was performed on the left knee of each mouse by observing the medial meniscotibial ligament but not transecting it. Mice were administered carprofen 5 mg/kg (Zoetis; 1041283) subcutaneously 30 minutes prior to surgery, immediately post-surgery, and 24 hours post-surgery to minimize pain.
Treatments were initiated either 1 day after DMM surgery once a week for 8 weeks, or 1 month after DMM surgery twice a week for 4 weeks. Mice were sacrificed at 20 weeks of age (2 months after surgery). To understand the level of articular cartilage damage 1 month after DMM surgery, a cohort of mice was sacrificed at 16 weeks old (FIG. 4).
Knee joint samples were harvested and fixed in 4% Paraformaldehyde for 3 days, and subsequently decalcified in formic acid (Statlab; 1414-32) for 3 days and embedded in paraffin. Sagittal sections 7 micrometers in thickness were taken and stained using Safranin-O (Sigma-Aldrich; S8884-25G), fast green (Sigma-Aldrich; F7258-25G), and hematoxylin (Fisherbrand; 245-656) using a standard histology protocol. Images were taken with the Olympus BX60 brightfield microscope using a 10× objective lens. Representative sections throughout the medial and lateral portion of side were chosen for histological analysis, resulting in 5 sections being imaged for both portions of the joint.
The 10 total sections per joint chosen for histology received randomized sample numbers and were given to three independent researchers who scored the level of cartilage damage based on OARSI guidelines (84). OARSI scores were analyzed with Prism 9 Software (GraphPad) using two-way ANOVA and Tukey's multiple comparisons test post-hoc. Scoring was performed by at least three experienced investigators blinded to treatment/genotype. Scores were averaged for the medial tibial plateau, medial femoral condyle, lateral tibial plateau, and lateral femoral condyle for each sample.

TGFbeta signaling = assay: GDF11 injection into the knee joint of mice with established post-traumatic OA: TGFbeta signaling; type: in vivo, mouse; settings: data of FIG. 13
Method: as §1, with “uM. […]” for “uM.”

Molecule | chondrocyte hypertrophy and MMP13 expression [1] | protection of AC cartilage (AC cartilage) | chondrocyte hypertrophy / chondrogenic hypertrophic markers in vitro [2] | degeneration of articular cartilage [3] | TGFbeta signaling (TGFbeta signaling)
c1ccc2c(-c3cnn4cc(-c5ccc(N6CCNCC6)cc5)cnc34)ccnc2c1 [LDN-193189] | prevented | protective | not able to prevent; also recorded: no reduction | – | –
B1 | – | – | – | attenuate the degeneration of articular cartilage | increase TGFbeta signaling
